This is an account of results in US9023789B2, “Amylin analogs and pharmaceutical compositions thereof” (Novo Nordisk A/S, priority 2012, dated 2015).

pIC50: −log10 of the molar value. Values after ≈ are worked out from the molar mass of the structure shown. Read-outs that look alike come from different tables or passages of the source. Numbered stars: 1 amine (or outer) side, 2 acyl side, 3 side chain; on linkers, the order of the positions; unused ones are H or OH. Bridge positions count the residues as written; N and C are the ends. Side chains are listed from the residue outwards. Peptide text beside a SMILES is read from it. * marks the point of attachment. C20 diacid = O=C(O)CCCCCCCCCCCCCCCCCCC(=O)*; γGlu = O=C(O)[C@H](CCC(=O)[*:2])N[*:1]; AEEA = NCCOCCOCC(=O)O A value given as a limit tells only on which side of the number the result lay.

In data set [1] the test system is Sprague Dawley (SD) rats. The data set can be described thus: ASSAY (I) efficacy testing on appetite (food intake) using an ad libitum fed rat model. In kind it is in vivo. The following applies: rat, 30 nmol/kg. In short, it runs like this:
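Ad libitum fed SD rats (200–250 g) were housed singly on a reversed light/dark cycle and given one 0.01–3 mg/kg dose ip, po or sc just before lights-off, with 5–8 per dose group plus vehicle controls. Food intake was recorded hourly for 7 h, then at 24 h and sometimes 48 h; Grubbs outliers were excluded.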

Data set [2] addresses T1, rat calcitonin receptor (Rattus norvegicus, UniProt P32214).
T1 construct: expressed in transfected cells; host or cells: BHK tk'ts 13 (transient, FuGENE 6), membranes
T1 sequence (P32214 25-479 isoform P32214-2 limits assumed): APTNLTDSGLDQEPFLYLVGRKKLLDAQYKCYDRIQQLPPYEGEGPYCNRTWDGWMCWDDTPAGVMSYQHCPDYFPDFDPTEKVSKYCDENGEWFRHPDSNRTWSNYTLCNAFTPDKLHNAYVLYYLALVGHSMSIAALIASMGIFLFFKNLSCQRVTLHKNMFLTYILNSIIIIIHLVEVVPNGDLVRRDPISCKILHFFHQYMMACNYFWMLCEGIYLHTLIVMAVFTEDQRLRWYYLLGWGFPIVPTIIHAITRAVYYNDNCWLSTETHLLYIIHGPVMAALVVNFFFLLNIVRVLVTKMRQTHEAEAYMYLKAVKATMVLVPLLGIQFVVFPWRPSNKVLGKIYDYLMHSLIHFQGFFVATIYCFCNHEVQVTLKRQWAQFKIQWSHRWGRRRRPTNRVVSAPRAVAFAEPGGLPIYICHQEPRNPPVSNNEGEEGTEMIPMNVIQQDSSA
Nature of the data set: ASSAY (VIII) binding to the rat calcitonin receptor. The following applies: Table 7, read-out: rCTR bind IC50. An outline of the steps: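 Membranes were prepared from BHK tk′ts 13 cells transiently transfected with rat calcitonin receptor. Cells were grown in DMEM with 10% FBS and harvested approximately 48 hours after transfection.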

The nature of data set [3]: ASSAY (IV) determination of solubility. It is filed as physicochemical. An outline of the steps:
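Polypeptide in water at […] mixed 1:1 with 100 mM buffers of pH 3.0-8.0 (glycylglycine pH 3-5, bistrispropane pH 6-8). Held 18 h at room temperature, then centrifuged; concentration remaining in solution measured by UPLC.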

Data set [4] deals with T2, human amylin receptor (membranes from Amylin 3(a)/CRE-luc cells) (Homo sapiens, UniProt O60896+P30988).
T2 construct: expressed in transfected cells
T2 sequence (P30988 25-474): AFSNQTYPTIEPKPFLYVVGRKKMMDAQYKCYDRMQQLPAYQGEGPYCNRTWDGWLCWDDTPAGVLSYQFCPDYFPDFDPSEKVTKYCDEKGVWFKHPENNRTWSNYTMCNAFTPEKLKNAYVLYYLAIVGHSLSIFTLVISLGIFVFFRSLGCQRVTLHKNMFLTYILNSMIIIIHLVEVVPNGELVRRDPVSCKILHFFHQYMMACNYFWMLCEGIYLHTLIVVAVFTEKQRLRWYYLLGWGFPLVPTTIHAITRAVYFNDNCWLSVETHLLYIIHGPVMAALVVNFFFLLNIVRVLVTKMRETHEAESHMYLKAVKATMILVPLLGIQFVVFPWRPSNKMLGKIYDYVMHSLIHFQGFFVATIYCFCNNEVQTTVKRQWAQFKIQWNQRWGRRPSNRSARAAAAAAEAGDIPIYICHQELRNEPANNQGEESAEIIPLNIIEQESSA
T2 sequence (O60896 24-148 partner): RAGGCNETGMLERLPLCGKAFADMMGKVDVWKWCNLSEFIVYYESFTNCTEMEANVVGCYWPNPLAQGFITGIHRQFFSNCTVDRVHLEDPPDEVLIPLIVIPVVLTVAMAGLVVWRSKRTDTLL
The data set can be described thus: ASSAY (V) binding to the human amylin receptor (SPA, 125I-rat amylin).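 Also: competition binding of cell membranes (35 ng/µL) mixed with SPA beads in 384-well plates at 40 µL total volume, read by scintillation counting.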
Protocol: The binding assay was performed using scintillation proximity assay (SPA) beads (RPNQ0001) from PerkinElmer and cell membranes from the Amylin 3(a)/CRE-luc cells (as described in Assay (II)) were used. Membranes were prepared in the following way; the cells were rinsed with PBS and incubated with Versene for approximately 5 min before harvesting. The cells were flushed with PBS and the cell-suspension was centrifuged for 5 min at 1000 rpm. […] The resulting pellet was resuspended in buffer 2 and protein concentration was measured (BCA protein Assay, Pierce). The homogenate was kept cold during the whole procedure. The membranes were kept at −80° C. until use. The assay was performed in a 384 well Optiplate (PerkinElmer) in a total volume of 40 ul. Membranes were mixed with SPA beads. Final concentration of membranes 35 ng/μL final and SPA beads was 0.05 mg/well. Test-compounds were dissolved in DMSO and further diluted in assay buffer (50 mM Hepes, pH 7.4, 1 mM CaCl2, 5 mM MgCl2, 0.1% OA and 0.02% Tween20). […] Samples were analyzed on TopCounter™ (Packard). The IC50 was calculated using (one site binding competition analysis) GraphPad Prism5 as a measure of receptor affinity.

For orientation: pIC50 means the negative decadic logarithm of the IC50, by convention in mol/L. On to `CC[C@H](C)[C@H](NC(=O)[C@H](C)NC(=O)CNC(=O)[C@H](Cc1ccccc1)NC(=O)[C@H](CC(N)=O)NC(=O)[C@@H]1CCCN1C(=O)[C@H](CO)NC(=O)[C@H](CO)NC(=O)[C@H](Cc1c[nH]cn1)NC(=O)[C@H](CCCNC(=N)N)NC(=O)[C@H](CC(C)C)NC(=O)[C@H](Cc1ccccc1)NC(=O)[C@H](CC(N)=O)NC(=O)[C@H](C)NC(=O)[C@H](CC(C)C)NC(=O)[C@H](CCCNC(=N)N)NC(=O)[C@H](CCC(N)=O)NC(=O)[C@@H](NC(=O)[C@H](C)NC(=O)[C@@H]1CSSC[C@H](NC(=O)[C@@H](N)CCCCNC(=O)COCCOCCNC(=O)CC[C@H](NC(=O)CCCCCCCCCCCCCCCCCCC(=O)O)C(=O)O)C(=O)N[C@@H](CC(N)=O)C(=O)N[C@@H]([C@@H](C)O)C(=O)N[C@@H](C)C(=O)N[C@@H]([C@@H](C)O)C(=O)N1)[C@@H](C)O)C(=O)N1CCC[C@H]1C(=O)N[C@@H](CO)C(=O)N[C@@H](CO)C(=O)N[C@H](C(=O)N[C@@H](CC(N)=O)C(=O)N[C@H](C(=O)NCC(=O)N[C@@H](Cc1c[nH]cn1)C(=O)N[C@@H](CC(N)=O)C(=O)N[C@H](C(=O)N[C@@H](Cc1ccc(O)cc1)C(N)=O)[C@@H](C)O)C(C)C)[C@@H](C)O` [Example 76] (H-K([AEEA-γGlu-C20 diacid])CNTATCATQRLANFLRHSSPNFGAIPSSTNVGHNTY-NH2; disulfide 2-7; N-terminus assumed), for which the “Food intake reduction 0-24 h 30 nmol/kg (%)” value in data set [1] (0-24 h) was 31%. In addition, the “Food intake reduction 24-48 h 30 nmol/kg (%)” value in data set [1] (24-48 h) was 2%. The pIC50 in data set [2] is 7.41; in data set [4] (Table 4, read-out: hAmylin-R bind IC50) it was 9.67. Also, the solubility at 18 h in data set [3] (bistrispropane buffer, pH 6.5, read-out: Solubility pH 6.5 Concentration) is at least 200 µM; in data set [3] (bistrispropane buffer, pH 7.5, read-out: Solubility pH 7.5 Concentration), at least 200 µM; in data set [3] (bistrispropane buffer, pH 6.0, read-out: Solubility pH 6.0 Concentration), at least 200 µM; in data set [3] (bistrispropane buffer, pH 7.0, read-out: Solubility pH 7.0 Concentration), at least 200 µM; in data set [3] (bistrispropane buffer, pH 8.0, read-out: Solubility pH 8.0 Concentration) it was 140 µM (≈ 638 µg/mL); in data set [3] (glycylglycine buffer, pH 3.0, read-out: Solubility pH 3.0 Concentration), at least 200 µM. Also, the solubility at 18 h in data set [3] (glycylglycine buffer, pH 4.0, read-out: Solubility pH 4.0 Concentration) was at least 200 µM; in data set [3] (glycylglycine buffer, pH 5.0, read-out: Solubility pH 5.0 Concentration), at least 200 µM. Moreover, the “Ratio hCT/hAmylin binding” value in data set [4] (Table 5, selectivity, hCTR bind IC50 / hAmylin-R bind IC50) is reported as 80.0; in data set [4] (Table 5a, selectivity, hCTR bind IC50 / hAmylin-R bind IC50) it was 80.0; in data set [4] (Table 5b, selectivity, hCTR bind IC50 / hAmylin-R bind IC50), 80.0; in data set [4] (Table 5c, selectivity, hCTR bind IC50 / hAmylin-R bind IC50), 80.0; in data set [4] (Table 7, human binding selectivity, included for comparison), 80.0; in data set [4] (Table 7a (preferred compounds), human binding selectivity, included for comparison), 80.0. The “Ratio hCT/hAmylin binding” value in data set [4] (ratio of human calcitonin receptor binding IC50 to human amylin receptor binding IC50) turned out to be 80.0.
